# Like-named read-outs stand apart in the source and are kept apart here.
# Target: T1, recominbant human tryptase, beta, from lung (Homo sapiens, UniProt P20231)
# T1 construct: purchased Promega or Enzo Life Sciences G5631 or BML-SE418
# Assay: Inhibition of tryptase activity by monomers and multimers (Boc-Gln-Ala-Arg-AMC fluorescence)
# Type: biochemical
# Conditions: monomers against tryptase
# How it was run: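 Recombinant human lung β-tryptase (1 nM final; stock with heparin sulfate and 1 M NaCl) preincubated with test substance, then 200 μM Boc-Gln-Ala-Arg-AMC added in 50 mM HEPES, 150 mM NaCl, 100 μM EDTA, 0.02% Tween-20, pH 7.4. AMC fluorescence (ex 367/em 468 nm) read every 30 s for 15–30 min; IC50 from Vmax concentration-response curves.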
# [1] = Table 5, read-out: Monomer IC50 range
# [2] = entry marked (1:10), read-out: IC50 range group of additional monomers marked (1:10)
# [3] = read-out: IC50 range group of additional monomers (boronic acid, benzooxaborole, ligands)
# T1 sequence (P20231 31-275): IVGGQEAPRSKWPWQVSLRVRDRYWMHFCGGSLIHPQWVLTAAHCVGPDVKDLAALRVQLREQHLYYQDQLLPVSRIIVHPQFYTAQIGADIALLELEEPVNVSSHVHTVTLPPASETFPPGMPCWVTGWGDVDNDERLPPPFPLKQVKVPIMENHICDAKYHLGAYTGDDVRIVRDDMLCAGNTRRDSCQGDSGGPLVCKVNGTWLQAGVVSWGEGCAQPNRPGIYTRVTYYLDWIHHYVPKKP
SMILES,IC50 [1],IC50 [2],IC50 [3]
"CC(C)(C)OC(=O)NCc1cccc(C2CCN(C(=O)c3cccc(NC(=O)C(=O)C(C)(C)O)c3)CC2)c1 [T55, tert-butyl 3-(1-(3-(3-hydroxy-3-methyl-2-oxobutanamido)benzoyl)piperidin-4-yl)benzylcarbamate]",0.1 to 1000 nM,,
"CC(C)(C)OC(=O)NCc1cccc(C2CCN(C(=O)c3cccc(NC(=O)C(O)C(C)(C)O)c3)CC2)c1 (stereo not drawn) [T55D, tert-butyl 3-(1-(3-(2,3-dihydroxy-3-methylbutanamido)benzoyl)piperidin-4-yl)benzylcarbamate]",0.1 to 1000 nM,0.1 to 1000 nM,
"NCc1cccc(C2CCN(C(=O)c3cc4c(B(O)O)cccc4s3)CC2)c1 [T56, 2-(4-(3-(aminomethyl)phenyl)piperidine-1-carbonyl)benzo[b]thiophen-4-ylboronic acid]",0.1 to 1000 nM,,0.1 to 1000 nM
"NCc1cccc(C2CCN(C(=O)c3cc4c(Br)cccc4s3)CC2)c1 [T56A, (4-(3-(aminomethyl)phenyl)piperidin-1-yl)(4-bromobenzo[b]thiophen-2-yl)methanone]",0.1 to 1000 nM,,
"NCc1cccc(C2CCN(C(=O)Cc3cc(B(O)O)ccc3F)CC2)c1 [T57, 3-(2-(4-(3-(aminomethyl)phenyl)piperidin-1-yl)-2-oxoethyl)-4-fluorophenylboronic acid]",1000 to 10000 nM,,1000 to 10000 nM
"NCc1cccc(C2CCN(C(=O)Cc3ccc(B(O)O)cc3F)CC2)c1 [T58, 4-(2-(4-(3-(aminomethyl)phenyl)piperidin-1-yl)-2-oxoethyl)-3-fluorophenylboronic acid]",1000 to 10000 nM,,1000 to 10000 nM
"NCc1cccc(C2CCN(C(=O)c3cc4ccc(B(O)O)cc4[nH]3)CC2)c1 [T59, 2-(4-(3-(aminomethyl)phenyl)piperidine-1-carbonyl)-1H-indol-6-ylboronic acid]",1000 to 10000 nM,,1000 to 10000 nM
"NCc1cccc(C2CCN(C(=O)c3ccc(O)c(CO)c3)CC2)c1 [T65, (4-(3-(aminomethyl)phenyl)piperidin-1-yl)(4-hydroxy-3-(hydroxymethyl)phenyl)methanone]",0.1 to 1000 nM,,0.1 to 1000 nM
"NCc1cccc(C2CCN(C(=O)c3ccc(O)c(C(N)=O)c3)CC2)c1 [T66, 5-(4-(3-(aminomethyl)phenyl)piperidine-1-carbonyl)-2-hydroxybenzamide]",0.1 to 1000 nM,,0.1 to 1000 nM
"CC1(O)CN(c2cccc(C(=O)N3CCC(c4cccc(CN)c4)CC3)c2)CC1(C)O (stereo not drawn) [T67, (4-(3-(aminomethyl)phenyl)piperidin-1-yl)(3-(3,4-dihydroxy-3,4-dimethylpyrrolidin-1-yl)phenyl)methanone]",0.1 to 1000 nM,,0.1 to 1000 nM
"NCc1cccc(C2CCN(C(=O)c3ccc(O)c(O)c3O)CC2)c1 [T68, (4-(3-(aminomethyl)phenyl)piperidin-1-yl)(2,3,4-trihydroxyphenyl)methanone]",1000 to 10000 nM,,1000 to 10000 nM
"NCc1cccc(C2CCN(C(=O)c3cc(O)c(O)c(O)c3)CC2)c1 [T69, (4-(3-(aminomethyl)phenyl)piperidin-1-yl)(3,4,5-trihydroxyphenyl)methanone]",1000 to 10000 nM,,1000 to 10000 nM
"NCc1cccc(C2CCN(C(=O)c3cccc(NC(=O)c4cccc(O)c4O)c3)CC2)c1 [T70, N-(3-(4-(3-(aminomethyl)phenyl)piperidine-1-carbonyl)phenyl)-2,3-dihydroxybenzamide]",0.1 to 1000 nM,,0.1 to 1000 nM
"NCc1cccc(C2CCN(C(=O)c3cccc(NC(=O)c4ccc(O)c(O)c4)c3)CC2)c1 [T71, N-(3-(4-(3-(aminomethyl)phenyl)piperidine-1-carbonyl)phenyl)-3,4-dihydroxybenzamide]",0.1 to 1000 nM,,0.1 to 1000 nM
"CC(O)(COc1cccc(C(=O)N2CCC(c3cccc(CN)c3)CC2)c1)C(=O)O (stereo not drawn) [T72, 3-(3-(4-(3-(aminomethyl)phenyl)piperidine-1-carbonyl)phenoxy)-2-hydroxy-2-methylpropanoic acid]",0.1 to 1000 nM,,0.1 to 1000 nM
"NCc1cccc(C2CCN(C(=O)c3cccc(OCC(O)(C(=O)O)c4ccccc4)c3)CC2)c1 (stereo not drawn) [T73, 3-(3-(4-(3-(aminomethyl)phenyl)piperidine-1-carbonyl)phenoxy)-2-hydroxy-2-phenylpropanoic acid]",0.1 to 1000 nM,,0.1 to 1000 nM
"NCc1cccc(C2CCN(C(=O)c3ccc(CO)c(O)c3)CC2)c1 [T74, (4-(3-(aminomethyl)phenyl)piperidin-1-yl)(3-hydroxy-4-(hydroxymethyl)phenyl)methanone]",0.1 to 1000 nM,0.1 to 1000 nM,
NCc1ccc2c(c1)C1(CCN(C(=O)c3ccc(CO)c(O)c3)CC1)CO2 [T74SPIRO],,,0.1 to 1000 nM
"NCc1cccc(C2CCN(C(=O)c3ccc(C(N)=O)c(O)c3)CC2)c1 [T75, 4-(4-(3-(aminomethyl)phenyl)piperidine-1-carbonyl)-2-hydroxybenzamide]",1000 to 10000 nM,,1000 to 10000 nM
"CONC(=O)c1ccc(C(=O)N2CCC(c3cccc(CN)c3)CC2)cc1O [T75A, 4-(4-(3-(aminomethyl)phenyl)piperidine-1-carbonyl)-2-hydroxy-N-methoxybenzamide]",0.1 to 1000 nM,,0.1 to 1000 nM
CC(C)(C)ONC(=O)c1ccc(C(=O)N2CCC3(CC2)COc2ccc(CN)cc23)cc1O [T75AOTBSPIRO],,,0.1 to 1000 nM
CC(C)(C)ONC(=O)c1ccc(C(=O)N2CCC(c3cccc(CN)c3)CC2)cc1O [T75AOTB],,,1000 to 10000 nM

SMILES,IC50 [1],IC50 [2],IC50 [3]
NCc1ccc2c(c1)C1(CCN(C(=O)c3ccc(C(=O)NOc4ccccc4)c(O)c3)CC1)CO2 [T75APSPIRO],,,0.1 to 1000 nM
NCc1cccc(C2CCN(C(=O)c3ccc(C(=O)NOc4ccccc4)c(O)c3)CC2)c1 [T75AP],,0.1 to 1000 nM,
CONC(=O)c1ccc(C(=O)N2CCC3(CC2)COc2ccc(CN)cc23)cc1O [T75ASPIRO],,0.1 to 1000 nM,
"NCc1cccc(C2CCN(C(=O)/C=C/c3ccc(C(N)=O)c(O)c3)CC2)c1 [T76, (E)-4-(3-(4-(3-(aminomethyl)phenyl)piperidin-1-yl)-3-oxoprop-1-enyl)-2-hydroxybenzamide]",0.1 to 1000 nM,,0.1 to 1000 nM
"CONC(=O)c1ccc(/C=C/C(=O)N2CCC(c3cccc(CN)c3)CC2)cc1O [T76A, (E)-4-(3-(4-(3-(aminomethyl)phenyl)piperidin-1-yl)-3-oxoprop-1-enyl)-2-hydroxy-N-methoxybenzamide]",0.1 to 1000 nM,,0.1 to 1000 nM
"NCc1cccc(C2CCN(C(=O)c3cc(O)c(O)cc3O)CC2)c1 [T77, (4-(3-(aminomethyl)phenyl)piperidin-1-yl)(2,4,5-trihydroxyphenyl)methanone]",10000 to 65000 nM,,10000 to 65000 nM
"NCc1cccc(C2CCN(C(=O)c3cc(O)c(O)c(Cl)c3)CC2)c1 [T78, (4-(3-(aminomethyl)phenyl)piperidin-1-yl)(3-chloro-4,5-dihydroxyphenyl)methanone]",0.1 to 1000 nM,,0.1 to 1000 nM
"NCc1ccc2c(c1)C1(CCN(C(=O)c3cc(O)c(O)c(Cl)c3)CC1)CO2 [T78SPIRO, (5-(aminomethyl)-2H-spiro[benzofuran-3,4′-piperidine]-1′-yl)(3-chloro-4,5-dihydroxyphenyl)methanone]",0.1 to 1000 nM,,0.1 to 1000 nM
"CC(O)(Cn1ccc2cc(C(=O)N3CCC(c4cccc(CN)c4)CC3)ccc21)C(=O)O (stereo not drawn) [T81, 3-(5-(4-(3-(aminomethyl)phenyl)piperidine-1-carbonyl)-1H-indol-1-yl)-2-hydroxy-2-methylpropanoic acid]",0.1 to 1000 nM,0.1 to 1000 nM,
"CC(O)(Cn1ccc2ccc(C(=O)N3CCC(c4cccc(CN)c4)CC3)cc21)C(=O)O (stereo not drawn) [T82, 3-(6-(4-(3-(aminomethyl)phenyl)piperidine-1-carbonyl)-1H-indol-1-yl)-2-hydroxy-2-methylpropanoic acid]",0.1 to 1000 nM,0.1 to 1000 nM,
"NCc1cccc(C2CCN(C(=O)c3ccc4c(ccn4CC(O)(C(=O)O)c4ccccc4)c3)CC2)c1 (stereo not drawn) [T83, 3-(5-(4-(3-(aminomethyl)phenyl)piperidine-1-carbonyl)-1H-indol-1-yl)-2-hydroxy-2-phenylpropanoic acid]",0.1 to 1000 nM,0.1 to 1000 nM,
"NCc1cccc(C2CCN(C(=O)c3ccc4ccn(CC(O)(C(=O)O)c5ccccc5)c4c3)CC2)c1 (stereo not drawn) [T84, 3-(6-(4-(3-(aminomethyl)phenyl)piperidine-1-carbonyl)-1H-indol-1-yl)-2-hydroxy-2-phenylpropanoic acid]",0.1 to 1000 nM,0.1 to 1000 nM,
CONC(=O)c1ccc(CC(=O)N2CCC(c3cccc(CN)c3)CC2)cc1O [T85 Å],,0.1 to 1000 nM,
"NCc1cccc(C2CCN(C(=O)/C=C/c3ccc(O)c(C(N)=O)c3)CC2)c1 [T86, (E)-5-(3-(4-(3-(aminomethyl)phenyl)piperidin-1-yl)-3-oxoprop-1-enyl)-2-hydroxybenzamide]",1000 to 10000 nM,,1000 to 10000 nM
"CONC(=O)c1cc(C(=O)N2CCC(c3cccc(CN)c3)CC2)ccc1O [T92, 5-(4-(3-(aminomethyl)phenyl)piperidine-1-carbonyl)-2-hydroxy-N-methoxybenzamide]",1000 to 10000 nM,,1000 to 10000 nM
NCc1cccc(C2CCN(C(=O)c3ccc(O)c(C(=O)NOc4ccccc4)c3)CC2)c1 [T92OPH],,,1000 to 10000 nM
NCc1ccc2c(c1)C1(CCN(C(=O)c3ccc(O)c(C(=O)NOc4ccccc4)c3)CC1)CO2 [T92PHSPIRO],,,1000 to 10000 nM
CONC(=O)c1cc(C(=O)N2CCC3(CC2)COc2ccc(CN)cc23)ccc1O [T92SPIRO],,,0.1 to 1000 nM
NCc1cccc(C2CCN(C(=O)c3cc(=O)oc4c(O)c(O)ccc34)CC2)c1 [T96],,,1000 to 10000 nM
"NCc1cccc(C2CCN(C(=O)Cc3cc(=O)oc4cc(O)c(O)cc34)CC2)c1 [T97, 4-(2-(4-(3-(aminomethyl)phenyl)piperidin-1-yl)-2-oxoethyl)-6,7-dihydroxy-2H-chromen-2-one]",1000 to 10000 nM,,1000 to 10000 nM
NCc1cccc(C2CCN(C(=O)Cc3cc(=O)oc4c(O)c(O)ccc34)CC2)c1 [T98],,,10000 to 65000 nM

# Source: patent US11970448B2, “Monomers capable of dimerizing in an aqueous solution, and methods of using same” (CORNELL UNIVERSITY, priority 2011, dated 2024)
